Source: ChEMBL document CHEMBL5108067, “Discovery of Potent OTUB1/USP8 Dual Inhibitors Targeting Proteostasis in Non-Small-Cell Lung Cancer” (J Med Chem, 2022)
Active and inactive are the calls of the source. No cut-off for these calls is given here.

How the values were obtained:
[1] = Tmax in ICR mouse at 10 mg/kg, po measured upto 1440 mins by LC-MS/MS analysis; type: ADME, organism-based; conditions: in vivo
[2] = Cmax in ICR mouse at 10 mg/kg, po measured upto 1440 mins by LC-MS/MS analysis; type: ADME, organism-based; parameters: dose 10 mg/kg, time < 1440 min, route po; conditions: in vivo
[3] = molecular target: T1, Ubiquitin carboxyl-terminal hydrolase 8 (Homo sapiens) (UniProt P40818); assay: Inhibition of USP8 in human NCI-H1975 cells assessed as reduction in EGFR protein level at 500 nM measured for 24 hrs by immunoblotting analysis; type: cell-based
T1 sequence (whole entry): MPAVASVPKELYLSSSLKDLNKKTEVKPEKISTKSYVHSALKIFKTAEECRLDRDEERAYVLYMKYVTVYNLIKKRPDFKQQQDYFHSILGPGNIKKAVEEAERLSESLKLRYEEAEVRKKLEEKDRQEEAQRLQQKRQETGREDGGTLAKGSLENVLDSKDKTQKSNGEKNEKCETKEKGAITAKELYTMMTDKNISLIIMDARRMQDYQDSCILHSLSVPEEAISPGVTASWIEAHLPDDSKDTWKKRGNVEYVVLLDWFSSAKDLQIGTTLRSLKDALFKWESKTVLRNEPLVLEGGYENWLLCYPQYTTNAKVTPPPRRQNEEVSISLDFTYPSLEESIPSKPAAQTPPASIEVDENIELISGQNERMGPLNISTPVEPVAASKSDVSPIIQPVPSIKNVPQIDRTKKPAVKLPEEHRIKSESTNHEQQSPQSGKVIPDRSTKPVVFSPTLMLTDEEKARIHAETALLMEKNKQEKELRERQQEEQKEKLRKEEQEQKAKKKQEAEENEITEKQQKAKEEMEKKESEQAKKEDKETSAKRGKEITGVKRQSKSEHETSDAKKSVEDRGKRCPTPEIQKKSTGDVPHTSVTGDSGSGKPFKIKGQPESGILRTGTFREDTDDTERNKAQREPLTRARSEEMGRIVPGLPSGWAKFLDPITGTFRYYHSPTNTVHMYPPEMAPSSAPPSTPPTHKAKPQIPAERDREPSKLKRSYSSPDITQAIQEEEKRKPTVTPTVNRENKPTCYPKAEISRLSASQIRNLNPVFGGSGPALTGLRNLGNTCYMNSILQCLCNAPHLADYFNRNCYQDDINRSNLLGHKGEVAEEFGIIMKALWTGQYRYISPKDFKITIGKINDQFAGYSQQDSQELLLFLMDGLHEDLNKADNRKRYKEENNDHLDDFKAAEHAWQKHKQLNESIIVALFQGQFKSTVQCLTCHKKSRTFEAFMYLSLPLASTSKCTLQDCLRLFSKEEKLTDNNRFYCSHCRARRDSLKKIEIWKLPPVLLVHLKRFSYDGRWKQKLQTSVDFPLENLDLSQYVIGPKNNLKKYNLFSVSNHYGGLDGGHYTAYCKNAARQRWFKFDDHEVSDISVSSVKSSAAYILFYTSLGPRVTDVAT

NCI-H1975 [4] = assay: Antitumor activity against human NCI-H1975 cells xenografted in BALB/c nude mouse model assessed as reduction in tumor volume at 5 mg/kg, ip bid for 2 weeks; type: functional, organism-based
[5] = Volume of distribution at steady state in ICR mouse at 1 mg/kg, iv measured upto 1440 mins by LC-MS/MS analysis; type: ADME, organism-based; conditions: in vivo, 24 h
[6] = AUC in ICR mouse at 10 mg/kg, po measured upto 1440 mins by LC-MS/MS analysis; type: ADME, organism-based; parameters: time < 1440 min, dose 10 mg/kg, route po; conditions: in vivo
[7] = molecular target: T2, Ubiquitin thioesterase OTUB1 (Homo sapiens, UniProt Q96FW1); assay: Inhibition of OTUB1 in human NCI-H1975 cells assessed as reduction in UBE2N protein level at 500 nM measured for 24 hrs by immunoblotting analysis; type: cell-based
T2 sequence (Q96FW1 whole entry): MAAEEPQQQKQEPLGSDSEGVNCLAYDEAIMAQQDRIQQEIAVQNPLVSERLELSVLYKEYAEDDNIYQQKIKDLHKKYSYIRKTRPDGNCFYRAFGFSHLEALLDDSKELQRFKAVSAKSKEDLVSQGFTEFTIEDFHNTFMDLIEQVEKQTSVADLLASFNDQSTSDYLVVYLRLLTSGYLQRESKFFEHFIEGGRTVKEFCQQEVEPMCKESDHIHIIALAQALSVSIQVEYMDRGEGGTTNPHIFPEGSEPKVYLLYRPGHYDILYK

Mus musculus [8] = assay: In vivo inhibition of OTUB1 in NCI-H1975 cells xenografted BALB/c nude mouse model assessed as decrease in UBE2N level at 15 mg/kg/day, po measured after 5 days by Western blot analysis; type: functional, organism-based; conditions: time 5.0 day
NCI-H1703 = assay: Antiproliferative activity against human NCI-H1703 cells harboring wild type KRAS incubated for 72 hrs by MTT assay; type: functional, cell-based; conditions: NCI-H1703, 72 h
[9] = molecular target: T1, Ubiquitin carboxyl-terminal hydrolase 8 (Homo sapiens); assay: Inhibition of USP8 in human NCI-H1975 cells assessed as reduction in protein level at 500 nM measured for 24 hrs by immunoblotting analysis; type: cell-based
[10] = Half life in ICR mouse at 1 mg/kg, iv measured upto 1440 mins by LC-MS/MS analysis; type: ADME, organism-based; conditions: in vivo, 24 h
[11] = Oral bioavailability in ICR mouse at 10 mg/kg measured upto 1440 mins by LC-MS/MS analysis; type: ADME, organism-based; conditions: in vivo
[12] = molecular target: T1, Ubiquitin carboxyl-terminal hydrolase 8 (Homo sapiens); assay: Inhibition of N-terminal His-6 tagged USP8 (734 to 1110 residues) (unknown origin) expressed in Escherichia coli BL21 (DE3) cells at 100 nM measured after 3 hrs by fluorescence based Plate reader method relative to control; conditions: values are per cent of control
[13] = AUC in ICR mouse at 1 mg/kg, iv measured upto 1440 mins by LC-MS/MS analysis; type: ADME, organism-based; parameters: time < 1440 min, dose 1 mg/kg, route iv; conditions: in vivo, 24 h
[14] = molecular target: T2, Ubiquitin thioesterase OTUB1; assay: Inhibition of OTUB1 in human NCI-H1975 cells assessed as reduction in protein level at 500 nM measured for 24 hrs by immunoblotting analysis; type: cell-based
[15] = Half life in ICR mouse at 10 mg/kg, po measured upto 1440 mins by LC-MS/MS analysis; type: ADME, organism-based; conditions: in vivo
[16] = molecular target: T1, Ubiquitin carboxyl-terminal hydrolase 8 (Homo sapiens); assay: Inhibition of N-terminal His-6 tagged USP8 (734 to 1110 residues) (unknown origin) expressed in Escherichia coli BL21 (DE3) cells at 10 nM measured after 3 hrs by fluorescence based Plate reader method relative to control; conditions: values are per cent of control
NCI-H1975 [17] = assay: Antitumor activity against human NCI-H1975 cells xenografted in BALB/c nude mouse model assessed as reduction of tumor burden at 5 mg/kg, ip qd for 2 weeks; type: functional, organism-based
Mus musculus [18] = assay: In vivo inhibition of USP8 in human NCI-H1975 cells xenografted BALB/c nude mouse model assessed as decrease in USP8 level at 15 mg/kg/day, po measured after 5 days by Western blot analysis; type: functional, organism-based; conditions: time 5.0 day
[19] = molecular target: T2, Ubiquitin thioesterase OTUB1; assay: Inhibition of N-terminal His-6 tagged OTUB1 (40 to 271 residues) (unknown origin) expressed in Escherichia coli BL21 (DE3) cells at 10 nM using Ub-Rho measured after 0.5 to 3 hrs by fluorescence based Plate reader method relative to control; conditions: time 0.5-3 hrs, values are per cent of control
Mus musculus [20] = assay: In vivo inhibition of USP8 in NCI-H1975 cells xenografted BALB/c nude mouse model assessed as decrease in EGFR level at 15 mg/kg/day, po measured after 5 days by Western blot analysis; type: functional, organism-based; conditions: time 5.0 day
[21] = molecular target: T2, Ubiquitin thioesterase OTUB1; assay: Inhibition of N-terminal His-6 tagged OTUB1 (40 to 271 residues) (unknown origin) expressed in Escherichia coli BL21 (DE3) cells at […] using Ub-Rho measured after 0.5 to 3 hrs by fluorescence based Plate reader method relative to control; conditions: dose 2.5 µM, time 0.5-3 hrs

| Tmax [1] | Cmax [2] | inhibition [3] | Vdss [5] | AUC at 24 h [6] | inhibition [7] | IC50 (NCI-H1703) | t1/2 [10] | bioavailability [11] | residual activity [12] | AUC [13] | half-life [15] | residual activity [16] | residual activity [19] | SMILES | also measured |
| --- | --- | --- | --- | --- | --- | --- | --- | --- | --- | --- | --- | --- | --- | --- | --- |
| 19.8 min | 4270 ng/mL | Active | 0.77 L/kg | 3750 ng·h/mL | Active | 145 nM | 49.8 min | 27.9% | 16.5% | 1345 ng·h/mL | 105 min | 21.7% | 10.5% | CN1CC[C@@H](Oc2ccc(F)c(-c3nc4c(o3)C(=O)c3ccccc3C4=O)c2Cl)C1 | Activity (NCI-H1975 [4]): Active; Activity (Mus musculus [8]): Active; inhibition [9]: Active; inhibition [14]: Active; Activity (NCI-H1975 [17]): Active; Activity (Mus musculus [18]): Active; Activity (Mus musculus [20]): Active |
|  |  |  |  |  |  | 173 nM |  |  | 20.5% |  |  | 37.2% | 10.7% | CN1CC[C@@H](Oc2ccc(Cl)c(-c3nc4c(o3)C(=O)c3ccccc3C4=O)c2F)C1 |  |
| 19.8 min | 313 ng/mL | Active | 2.37 L/kg | 229 ng·h/mL | Active | 113 nM | 51.6 min | 7.5% | 25% | 306 ng·h/mL | 86.4 min | 35.8% | 28.9% | CN1CC[C@@H](Oc2ccc(Cl)c(-c3nc4c(o3)C(=O)c3ccccc3C4=O)c2)C1 |  |
|  |  |  |  |  |  | 93 nM |  |  | 32.2% |  |  | 43.4% | 42.4% | O=C1c2ccccc2C(=O)c2oc(-c3cccnc3)nc21 | inhibition [21]: 100% |
